Test results: patent publication US20250066350A1, “AROMATIC HETEROCYCLE-SUBSTITUTED COMPOUNDS, AND PREPARATION METHOD THEREFOR AND USE THEREOF” (Innovstone Therapeutics Limited, priority 2021, published 2025)
Where two headings read alike, the source gives them in different places.

Key:
LoVo cells = test: LoVo cell proliferation experiment (CellTiter-Glo, intracellular ATP); type: cell-based; details: LoVo human colon cancer cells, 4 days, read-out: IC50 for inhibition of LoVo cell proliferation
Procedure: The following method is used to evaluate the inhibitory effect of the compounds of the present invention on LoVo cell proliferation according to the IC50 values by means of detecting the intracellular ATP content. The experimental method is briefly described as follows:
1. LoVo, human colon cancer tumor cells (Co-bioer, CBP60032)
LoVo cells were cultured in F-12K medium containing 10% FBS and passaged 2 to 3 times a week at a split ratio of 1:3 or 1:5. During passage, the cells were trypsinized and transferred to a centrifuge tube. The tube was centrifuged at 1000 rpm for 5 minutes, the supernatant medium was discarded, and fresh medium was added to resuspend the cells. 100 μL of cell suspension at a density of 1.5×10^4 cells/mL was added to a 96-well cell culture plate, and 100 μL of complete medium only was added to the periphery wells of the 96-well plate. The culture plate was incubated in an incubator for 24 hours (37° C., 5% CO2).
The sample to be tested was diluted to 1 mM with DMSO, diluted 3-fold serially to 8 concentrations, and prepared to 200× dilution with cell culture medium. Blank and control wells were set. 5 μL of the solution containing the compound to be tested prepared in gradient concentrations was added to 95 μL of fresh medium. 100 μL of 1× culture medium containing the compound was added to the culture plate. The culture plate was incubated in an incubator for 4 days (37° C., 5% CO2). 50 μL of CellTiter-Glo reagent was added to each well of the 96-well cell culture plate, and the plate was placed at room temperature in the dark for 5-10 min. The chemiluminescent signal values were read in PHERAstar, and data were processed using GraphPad software.
The inhibitory effect of the compounds of the present invention on LoVo cell proliferation can be determined by the test described above, and the measured IC50 values are shown in Table 2.

SNU-601 cells = test: SNU-601 cell proliferation experiment (CellTiter-Glo, intracellular ATP); type: cell-based; details: SNU-601 human gastric cancer cells, 5 days, read-out: IC50 for inhibition of SNU-601 cell proliferation
Procedure: The following method is used to evaluate the inhibitory effect of the compounds of the present disclosure on SNU-601 cell proliferation according to the IC50 values by means of detecting the intracellular ATP content. The experimental method is briefly described as follows:
1. SNU-601, human gastric cancer tumor cells (Co-bioer, CBP60507)
SNU-601 cells were cultured in RPMI 1640 medium containing 10% FBS and passaged 2 to 3 times a week at a split ratio of 1:5 or 1:10. During passage, the cells were trypsinized and transferred to a centrifuge tube. The tube was centrifuged at 1000 rpm for 5 minutes, the supernatant medium was discarded, and fresh medium was added to resuspend the cells. 195 μL of cell suspension at a density of 5.128×10^3 cells/mL was added to a 96-well cell culture plate, and 200 μL of complete medium only was added to the periphery wells of the 96-well plate. The culture plate was incubated in an incubator for 24 hours (37° C., 5% CO2).
The sample to be tested was diluted to 2 mM with DMSO, diluted 3-fold serially to 10 concentrations. Blank and control wells were set. 10 μL of the solution containing the compound to be tested prepared in gradient concentrations was added to 50 μL of fresh medium. 5 μL of the above culture medium solution containing the compound was added to the culture plate. The culture plate was incubated in an incubator for 5 days (37° C., 5% CO2). 50 μL of CellTiter-Glo reagent was added to each well of the 96-well cell culture plate after discarding 100 μL/well, and the plate was shaken at room temperature in the dark for 10 min. The chemiluminescent signal values were read in PHERAstar, and data were processed using GraphPad software.
The inhibitory effect of the compounds of the present invention on SNU-601 cell proliferation can be determined by the test described above, and the measured IC50 values are shown in Table 3.

ATR enzyme = ATR enzyme (Homo sapiens (Human), UniProt Q13535); test: Inhibitory effect on ATR enzyme (HTRF, phospho-P53); type: biochemical; details: 90 minutes incubation, 150 nM ATP final; read-out: IC50 for ATR enzyme inhibition
Procedure: Test Example 1. Inhibitory Effect of Compounds of the Present Invention on ATR Enzyme
The following method is used to determine the inhibitory effect of the compounds of the present invention on the ATR enzyme. The experimental method is briefly described as follows:
1. ATR enzyme (Eurofins Pharma Discovery Services, 14-953M)
2. GST-tagged P53 protein (Eurofins Pharma Discovery Services, 14-952M)
15 nM ATR enzyme, 80 nM P53 protein, 300 nM ATP (the final concentrations were 40 nM and 150 nM, respectively), and small molecule compounds of various concentrations (the final concentrations (nM) of the ten points were 2985.0, 895.5, 298.5, 110.56, 33.17, 11.06, 4.09, 1.23, 0.41 and 0.15, respectively, and the final dimethyl sulfoxide concentration was 0.498%) were mixed and incubated at room temperature for 90 minutes. 10 μL of 2× cocktail buffer was added to the mixture of ATR, compound and substrate in the assay plate (anti-phospho-p53-Eu and anti-GST-d2 were diluted in the assay buffer). The resulting mixture was centrifuged at 1000 rpm for 30 seconds, and incubated overnight at 4° C. in the dark (a total of 20 μl in each well). The FRET signal (endpoint) was measured in the Envision instrument (HTRF 665/612 ratio was calculated at 665 nm emission and 612 nm emission). Data were processed using GraphPad software.
The inhibitory activity of the compounds of the present invention on the ATR enzyme can be determined by the test described above, and the measured IC50 values are shown in Table 1.

Chain of ATR enzyme (Q13535 whole entry): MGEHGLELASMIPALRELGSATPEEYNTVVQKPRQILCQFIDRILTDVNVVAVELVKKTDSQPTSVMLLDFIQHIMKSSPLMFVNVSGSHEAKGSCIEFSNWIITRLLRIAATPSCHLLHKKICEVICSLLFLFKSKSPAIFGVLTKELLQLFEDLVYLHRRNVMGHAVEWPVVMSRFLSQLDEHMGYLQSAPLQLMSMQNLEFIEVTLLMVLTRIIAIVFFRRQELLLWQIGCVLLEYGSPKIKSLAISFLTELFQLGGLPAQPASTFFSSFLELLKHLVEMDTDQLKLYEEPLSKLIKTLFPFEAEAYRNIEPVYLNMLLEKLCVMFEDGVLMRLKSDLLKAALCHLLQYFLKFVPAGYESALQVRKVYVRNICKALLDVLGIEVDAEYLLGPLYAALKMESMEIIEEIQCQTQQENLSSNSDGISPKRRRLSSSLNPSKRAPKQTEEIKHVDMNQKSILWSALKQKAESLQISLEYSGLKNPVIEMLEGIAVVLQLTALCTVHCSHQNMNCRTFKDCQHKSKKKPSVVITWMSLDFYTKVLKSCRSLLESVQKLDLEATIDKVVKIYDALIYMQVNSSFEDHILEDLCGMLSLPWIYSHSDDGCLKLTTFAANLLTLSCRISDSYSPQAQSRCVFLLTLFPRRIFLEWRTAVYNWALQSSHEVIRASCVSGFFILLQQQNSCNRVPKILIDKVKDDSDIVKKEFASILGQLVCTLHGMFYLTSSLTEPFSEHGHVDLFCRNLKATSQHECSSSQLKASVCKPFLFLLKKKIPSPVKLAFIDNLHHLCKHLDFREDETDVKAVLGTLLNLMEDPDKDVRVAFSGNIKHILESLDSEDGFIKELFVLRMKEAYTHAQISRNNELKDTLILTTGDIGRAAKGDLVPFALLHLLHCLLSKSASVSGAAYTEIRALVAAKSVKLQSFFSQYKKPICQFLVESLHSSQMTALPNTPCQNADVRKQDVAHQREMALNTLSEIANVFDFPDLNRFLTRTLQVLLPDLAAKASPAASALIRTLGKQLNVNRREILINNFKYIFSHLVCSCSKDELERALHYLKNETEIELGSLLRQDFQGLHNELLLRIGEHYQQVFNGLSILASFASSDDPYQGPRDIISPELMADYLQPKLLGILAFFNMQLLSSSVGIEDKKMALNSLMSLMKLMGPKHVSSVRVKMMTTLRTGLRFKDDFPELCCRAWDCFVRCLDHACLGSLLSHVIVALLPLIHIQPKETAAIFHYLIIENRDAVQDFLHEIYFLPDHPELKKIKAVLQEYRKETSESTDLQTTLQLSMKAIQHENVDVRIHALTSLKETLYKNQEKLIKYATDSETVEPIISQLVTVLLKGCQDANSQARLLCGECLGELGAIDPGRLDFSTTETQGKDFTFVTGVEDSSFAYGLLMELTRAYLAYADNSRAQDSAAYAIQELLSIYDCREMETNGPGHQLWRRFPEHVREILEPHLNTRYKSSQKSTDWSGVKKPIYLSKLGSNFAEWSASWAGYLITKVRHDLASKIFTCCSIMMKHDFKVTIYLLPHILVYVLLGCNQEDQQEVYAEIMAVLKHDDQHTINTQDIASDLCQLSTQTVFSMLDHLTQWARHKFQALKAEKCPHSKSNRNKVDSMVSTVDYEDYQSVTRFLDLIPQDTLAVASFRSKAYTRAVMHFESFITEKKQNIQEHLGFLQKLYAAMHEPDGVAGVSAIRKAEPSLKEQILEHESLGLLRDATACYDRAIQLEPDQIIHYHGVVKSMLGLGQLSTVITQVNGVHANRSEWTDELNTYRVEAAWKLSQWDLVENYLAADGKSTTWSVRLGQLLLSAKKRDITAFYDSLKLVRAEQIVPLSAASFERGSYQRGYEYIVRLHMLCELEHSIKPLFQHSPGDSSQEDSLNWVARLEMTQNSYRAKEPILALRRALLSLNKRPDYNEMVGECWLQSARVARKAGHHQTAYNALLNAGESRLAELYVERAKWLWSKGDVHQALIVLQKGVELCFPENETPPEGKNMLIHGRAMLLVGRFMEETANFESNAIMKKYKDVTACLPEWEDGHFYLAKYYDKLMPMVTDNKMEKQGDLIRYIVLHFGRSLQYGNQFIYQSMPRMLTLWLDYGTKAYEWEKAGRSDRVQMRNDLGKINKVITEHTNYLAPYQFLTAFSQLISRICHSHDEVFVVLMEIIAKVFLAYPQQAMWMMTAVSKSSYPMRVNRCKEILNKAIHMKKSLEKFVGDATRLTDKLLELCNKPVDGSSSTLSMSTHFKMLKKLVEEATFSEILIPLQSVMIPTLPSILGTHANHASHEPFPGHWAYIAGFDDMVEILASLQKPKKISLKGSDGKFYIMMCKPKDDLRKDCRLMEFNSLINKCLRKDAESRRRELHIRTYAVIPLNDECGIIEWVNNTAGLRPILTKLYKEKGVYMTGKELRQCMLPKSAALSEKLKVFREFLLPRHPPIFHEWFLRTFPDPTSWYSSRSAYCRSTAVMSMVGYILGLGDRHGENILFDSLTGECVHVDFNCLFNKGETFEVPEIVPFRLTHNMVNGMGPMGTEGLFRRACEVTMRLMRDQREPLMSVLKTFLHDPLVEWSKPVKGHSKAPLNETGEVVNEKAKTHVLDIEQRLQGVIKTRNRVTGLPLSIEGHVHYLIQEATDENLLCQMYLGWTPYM
Chain of ATR enzyme (Q8WXE1 whole entry partner): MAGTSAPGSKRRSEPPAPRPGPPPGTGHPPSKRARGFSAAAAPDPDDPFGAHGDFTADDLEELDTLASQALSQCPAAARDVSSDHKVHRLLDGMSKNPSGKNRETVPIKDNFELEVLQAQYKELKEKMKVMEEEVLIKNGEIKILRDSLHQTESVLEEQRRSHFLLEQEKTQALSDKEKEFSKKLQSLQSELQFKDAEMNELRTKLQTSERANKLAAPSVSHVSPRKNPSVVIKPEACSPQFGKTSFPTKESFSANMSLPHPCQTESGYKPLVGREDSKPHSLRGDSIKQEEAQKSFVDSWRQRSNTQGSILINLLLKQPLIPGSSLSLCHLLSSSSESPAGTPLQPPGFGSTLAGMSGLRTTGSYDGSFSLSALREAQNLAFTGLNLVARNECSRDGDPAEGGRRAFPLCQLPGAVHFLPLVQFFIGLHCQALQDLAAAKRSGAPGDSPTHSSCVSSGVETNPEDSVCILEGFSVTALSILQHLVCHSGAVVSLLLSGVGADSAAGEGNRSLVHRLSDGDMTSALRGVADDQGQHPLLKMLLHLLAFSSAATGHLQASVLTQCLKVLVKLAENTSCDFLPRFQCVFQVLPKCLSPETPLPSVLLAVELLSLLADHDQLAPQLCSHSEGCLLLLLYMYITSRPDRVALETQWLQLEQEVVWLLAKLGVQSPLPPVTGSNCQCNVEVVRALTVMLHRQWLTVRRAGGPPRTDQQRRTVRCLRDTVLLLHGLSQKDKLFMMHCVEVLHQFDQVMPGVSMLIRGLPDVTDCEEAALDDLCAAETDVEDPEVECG

IC50 (LoVo cells; 96 h) [nM] | IC50 (SNU-601 cells; 120 h) [nM] | IC50 (ATR enzyme) [nM] | IC50 (LoVo cells) [nM] | IC50 (SNU-601 cells) [nM] | Structure (SMILES)
20 to 100 | – | – | – | – | C[C@@H]1COCCN1c1cc(C2(O)CCC3(CC2)CO3)c2cnn(-c3cc[nH]n3)c2n1 (stereo partly drawn) [Compound 2, (R)-6-(6-(3-methylmorpholinyl)-1-(1H-pyrazol-3-yl)-1H-pyrazole[3,4-b]pyridin-4-yl)-1-oxaspiro[2.5]octan-6-ol]
≤ 20 | – | – | – | – | COCC#Cc1cc(N2CCOC[C@H]2C)nc2c1cnn2-c1cc[nH]n1 [Compound 5, (R)-4-(4-(3-methoxypropyl-1-alkynyl)-1-(1H-pyrazol-3-yl)-1H-pyrazole[3,4-b]pyridin-6-yl)-3-methylmorpholine]
20 to 100 | 10 to 100 | – | – | – | C[C@@H]1COCCN1c1cc(-c2ccc(N3CCCCC3=O)cc2)c2cnn(-c3cc[nH]n3)c2n1 [Compound 7, (R)-1-(4-(6-(3-methylmorpholinyl)-1-(1H-pyrazolyl-3-yl)-1H-pyrazolyl[3,4-b]pyridin-4-yl)phenyl)piperidin-2-one]
20 to 100 | – | – | – | – | C[C@@H]1COCCN1c1cc(C2CCCOC2)c2cnn(-c3cc[nH]n3)c2n1 (stereo partly drawn) [Compound 13, (3R)-4-(1-(1H-pyrazol-3-yl)-4-(tetrahydro-2H-pyran-3-yl)-1H-pyrazole[3,4-b]pyridin-6-yl)-3-methylmorpholine]
20 to 100 | 10 to 100 | – | – | – | C[C@@H]1COCCN1c1cc(-c2ccc(NC(=O)c3cccc(S(C)(=O)=O)c3)cc2)c2cnn(-c3cc[nH]n3)c2n1 [Example 145]
≤ 20 | ≤ 10 | ≤ 10 | – | – | C#CC1CCC(O)(c2cc(N3CCOC[C@H]3C)nc3c2cnn3-c2cc[nH]n2)CC1 (stereo partly drawn) [Example 147, (R)-4-ethynyl-1-(6-(3-methylmorpholinyl)-1-(1H-pyrazolyl-3-yl)-1H-pyrazolyl[3,4-b]pyridin-4-yl)cyclohexanol]
– | – | ≤ 10 | 20 to 100 | 10 to 100 | C[C@@H]1COCCN1c1cc(-c2ccc(NC(=O)c3ccncc3)cc2)c2cnn(-c3cc[nH]n3)c2n1 [Example 148]
– | – | ≤ 10 | 20 to 100 | 10 to 100 | C[C@@H]1COCCN1c1cc(-c2ccc(NC(=O)c3cocn3)cc2)c2cnn(-c3cc[nH]n3)c2n1 [Example 164]
20 to 100 | 10 to 100 | – | – | – | C[C@@H]1COCCN1c1cc(-c2ccc(N3CCCCCC3=O)cc2F)c2cnn(-c3cc[nH]n3)c2n1 [Example 197]
20 to 100 | ≤ 10 | ≤ 10 | – | – | C[C@@H]1COCCN1c1cc(-c2ccc(NC(=O)N3CCCC3)c(C#N)c2)c2cnn(-c3cc[nH]n3)c2n1 [Example 228]
20 to 100 | 10 to 100 | ≤ 10 | – | – | C[C@@H]1COCCN1c1cc(-c2ccc(NC(=O)c3cocn3)cc2F)c2cnn(-c3cc[nH]n3)c2n1 [Example 235]
20 to 100 | 10 to 100 | ≤ 10 | – | – | C[C@@H]1COCCN1c1cc(-c2ccc(N3CCCCS3(=O)=O)cc2F)c2cnn(-c3cc[nH]n3)c2n1 [Example 239]
– | 10 to 100 | ≤ 10 | – | – | C[C@@H]1COCCN1c1cc(-c2c(F)cc(N3CCCCC3=O)cc2F)c2cnn(-c3cc[nH]n3)c2n1 [Example 240]
– | 10 to 100 | ≤ 10 | – | – | CC1CCCN(c2cc(F)c(-c3cc(N4CCOC[C@H]4C)nc4c3cnn4-c3cc[nH]n3)c(F)c2)C1=O (stereo partly shown) [Example 241]
– | 10 to 100 | ≤ 10 | – | – | C[C@@H]1COCCN1c1cc(-c2ccc(N3CC=CCC3=O)cc2F)c2cnn(-c3cc[nH]n3)c2n1 [Example 243]
– | 10 to 100 | ≤ 10 | – | – | C[C@@H]1COCCN1c1cc(-c2ccc(NC(=O)N3CCCCC3)c(F)c2)c2cnn(-c3cc[nH]n3)c2n1 [Example 244]

IC50 (LoVo cells; 96 h) [nM] | IC50 (SNU-601 cells; 120 h) [nM] | IC50 (ATR enzyme) [nM] | IC50 (LoVo cells) [nM] | IC50 (SNU-601 cells) [nM] | Structure (SMILES)
– | 10 to 100 | ≤ 10 | – | – | C[C@@H]1COCCN1c1cc(-c2ccc(NC(=O)N3CCCC3)cc2F)c2cnn(-c3cc[nH]n3)c2n1 [Example 245]
– | 10 to 100 | ≤ 10 | – | – | CC1CCCN1C(=O)Nc1ccc(-c2cc(N3CCOC[C@H]3C)nc3c2cnn3-c2cc[nH]n2)cc1 (stereo partly shown) [Example 246]
– | 10 to 100 | ≤ 10 | – | – | C[C@@H]1COCCN1c1cc(-c2ccc(NC(=O)N3CCCC3)nc2)c2cnn(-c3cc[nH]n3)c2n1 [Example 250]
– | 10 to 100 | ≤ 10 | – | – | Cc1cc(NC(=O)N2CCCC2)cc(C)c1-c1cc(N2CCOC[C@H]2C)nc2c1cnn2-c1cc[nH]n1 [Example 251]
– | 10 to 100 | ≤ 10 | – | – | Cc1cc(N2CC3CCC(O3)C2=O)ccc1-c1cc(N2CCOC[C@H]2C)nc2c1cnn2-c1cc[nH]n1 (stereo partly shown) [Example 254]
– | 10 to 100 | ≤ 10 | – | – | C[C@@H]1COCCN1c1cc(-c2ccc(N3CC4CCC(O4)C3=O)nc2)c2cnn(-c3cc[nH]n3)c2n1 (stereo partly shown) [Example 255]
– | 10 to 100 | ≤ 10 | – | – | Cc1cc(-c2cc(N3CCOC[C@H]3C)nc3c2cnn3-c2cc[nH]n2)ccc1N1CC2CCC(O2)C1=O (stereo partly shown) [Example 256]
– | 10 to 100 | ≤ 10 | – | – | C[C@@H]1COCCN1c1cc(-c2cnc(N3CC4CCC(O4)C3=O)cc2F)c2cnn(-c3cc[nH]n3)c2n1 (stereo partly shown) [Example 257]
– | 10 to 100 | ≤ 10 | – | – | C[C@@H]1COCCN1c1cc(-c2cc(NC(=O)C3CC3)on2)c2cnn(-c3cc[nH]n3)c2n1 [Example 260]
20 to 100 | 10 to 100 | ≤ 10 | – | – | C[C@@H]1COCCN1c1cc(-c2c(F)cc(N3CC4CCC(O4)C3=O)cc2F)c2cnn(-c3cc[nH]n3)c2n1 (stereo partly shown) [Example 261]
– | 10 to 100 | ≤ 10 | – | – | C[C@@H]1COCCN1c1cc(-c2ccc(N3C(=O)C4C=CC3C4)cc2F)c2cnn(-c3cc[nH]n3)c2n1 (stereo partly shown) [Example 262]
– | 10 to 100 | ≤ 10 | – | – | C[C@@H]1COCCN1c1cc(-c2ccc(N3C(=O)C4CCC3C4)cc2F)c2cnn(-c3cc[nH]n3)c2n1 (stereo partly shown) [Example 263]
– | 10 to 100 | ≤ 10 | – | – | C[C@@H]1COCCN1c1cc(-c2ccc(N3C(=O)C4CCC3CC4)cc2F)c2cnn(-c3cc[nH]n3)c2n1 [Example 264]
– | 10 to 100 | 10 to 50 | – | – | C[C@@H]1COCCN1c1cc(N2CC(NC(=O)C3CCC3)C2)c2cnn(-c3cc[nH]n3)c2n1 [Example 265]
20 to 100 | 10 to 100 | ≤ 10 | – | – | C[C@@H]1COCCN1c1cc(C2(O)CCC(C#N)CC2)c2cnn(-c3cc[nH]n3)c2n1 (stereo partly shown) [RP103, reference compound]
